From patent US20230293539A1, “MLL1-WDR5 PROTEIN-PROTEIN INTERACTION INHIBITOR COMPOUNDS AND USES THEREOF” (HUYABIO International, LLC, priority 2022, published 2023)

How the values were obtained:
CD73 = CD73 (Homo sapiens, UniProt P21589); experiment: Selectivity panel (Table 3); format: biochemical
SHP2 D61G = SHP2 D61G (Homo sapiens, UniProt Q06124, D61G); experiment: Selectivity panel (Table 3); format: biochemical
Metabolite ID in plasma [1] = format: in vitro ADME; settings: HBI-2375 and metabolites in Rat plasma
LSD1 = LSD1 (Homo sapiens, UniProt O60341); experiment: Selectivity panel (Table 3); format: biochemical
MV 411 cells = experiment: Cell Viability Assay (CellTiter-Glo); format: cell-based; settings: Homo sapiens, MV4-11, 72 hours, read-out: IC50 (anti-proliferative activity against leukemia cells)
Procedure: Cell lines and maintenance: All cell lines (MV 411) used for in vitro and in vivo studies were supplied as part of Wuxi AppTech cell bank. Cell lines were maintained in a medium supplemented with 10% heat inactivated fetal bovine serum at 37° C., in an atmosphere of 5% CO2, in air. The tumor cells were routinely subcultured twice weekly. The cells growing in an exponential growth phase were used for the in vitro cell potency and in vivo efficacy studies.
EXAMPLE 1: Cell Viability Assay: For cell cytotoxicity assays, 2000 cells/well were plated in 384-well plates. Twenty four hours after plating, cells were treated with inhibitors at the indicated compound concentrations. On Day 3 (72 hours), cells were lysed with CellTiter-Glo® Luminescent Cell Viability Assay reagent (Promega) and luminescence was read using the EnVision Multi-plate reader. To calculate IC50, a dose-response curve is generated using a nonlinear regression model with a sigmoidal dose response. The formula of surviving rate is shown below. IC50 values were automatically generated by GraphPad Prism 8.0. See FIG. 1A and FIG. 1B and Tables 3 and 4.

KRAS WT = KRAS WT (Homo sapiens, UniProt P01116); experiment: Selectivity panel (Table 3); format: binding
KRAS G12C = KRAS G12C (Homo sapiens, UniProt P01116, G12C); experiment: Selectivity panel (Table 3); format: binding
WIP 1 = WIP 1 (Homo sapiens, UniProt O15297); experiment: Selectivity panel (Table 3); format: biochemical
HDAC2 = HDAC2 (Homo sapiens, UniProt Q92769); experiment: Selectivity panel (Table 3); format: biochemical
in vitro [2] = settings: cynomolgus monkey, plasma
HDAC3 = HDAC3 (Homo sapiens, UniProt O15379); experiment: Selectivity panel (Table 3); format: biochemical
TEAD4 = TEAD4 (Homo sapiens, UniProt Q15561); experiment: Selectivity panel (Table 3); format: binding
hERG = hERG (Homo sapiens, UniProt Q12809); experiment: hERG IC50; format: cell-based
KRAS G12V = KRAS G12V (Homo sapiens, UniProt P01116, G12V); experiment: Selectivity panel (Table 3); format: binding
[3] = WBS (whole blood stability) assay; format: in vitro ADME; settings: for % Remaining after 60 min incubation: 2 μM, 37° C.
Procedure: WBS (whole blood stability) assay: The blood samples were collected freshly from multiple species including human, monkey, dog, rat and mouse. 2 μM of test compound and positive control were incubated with the whole blood at 37° C. at 0, 10, 30, 60, and 120 minutes in duplicate. After adding the stop solution, 200 μL of supernatant were analyzed by LC-MS/MS. The % remaining of test compound and T1/2 (min) were calculated and reported.

Liver S9 stability assay = format: in vitro ADME, dog
Procedure: Liver S9 stability assay: Test compounds (1 μM) and positive control were incubated with 5 mM GSH and liver S9 (1 mg protein/ml) from multiple species (including human, monkey, dog, rat and mouse) at 37° C. at 0, 10, 30, and 60 minutes in duplicate. After adding the stop solution, 100 μL of supernatant were analyzed by LC-MS/MS. The % remaining of test compound, T1/2 (min), and CLint (μL/min/mg) were calculated and were reported.

Metabolite ID in plasma [4] = format: in vitro ADME; settings: HBI-2375 and metabolites in Monkey plasma
[5] = Predicted brain concentrations based on mouse/rat PK/BBB data; settings: Equivalent Human 6.5 mg/kg
Procedure: The ability of a compound of Formula (IIIb) (HBI_084 (HBI-2375)) to cross the BBB is determined in a population comprising one or more human subjects by orally (PO) or intravenously (IV) administering a pharmaceutical composition comprising a compound of Formula (IIIb) to the individual members of the population of human subjects at one or more doses described in Example 5. Blood samples and CSF are drawn from the subjects and compound concentrations are determined in the blood plasma and CSF of the subjects as described in Example 4. Pharmacokinetic parameters are determined by means analogous to those described in Examples 1-4. Doses for HBI-2375 may be based on a target concentration in subjects' brain predicted using the following table.

HDAC1 = HDAC1 (Homo sapiens, UniProt Q13547); experiment: Selectivity panel (Table 3); format: biochemical
HDAC8 = HDAC8 (Homo sapiens, UniProt Q9BY41); experiment: Selectivity panel (Table 3); format: biochemical
in vitro [6] = settings: mouse, plasma
ATX = ATX (Homo sapiens, UniProt Q13822); experiment: Selectivity panel (Table 3); format: biochemical
KRAS G12D = KRAS G12D (Homo sapiens, UniProt P01116, G12D); experiment: Selectivity panel (Table 3); format: binding
TCPTP = TCPTP (Homo sapiens, UniProt P17706); experiment: Selectivity panel (Table 3); format: biochemical

HDAC3, sequence (O15379 whole entry, species assumed): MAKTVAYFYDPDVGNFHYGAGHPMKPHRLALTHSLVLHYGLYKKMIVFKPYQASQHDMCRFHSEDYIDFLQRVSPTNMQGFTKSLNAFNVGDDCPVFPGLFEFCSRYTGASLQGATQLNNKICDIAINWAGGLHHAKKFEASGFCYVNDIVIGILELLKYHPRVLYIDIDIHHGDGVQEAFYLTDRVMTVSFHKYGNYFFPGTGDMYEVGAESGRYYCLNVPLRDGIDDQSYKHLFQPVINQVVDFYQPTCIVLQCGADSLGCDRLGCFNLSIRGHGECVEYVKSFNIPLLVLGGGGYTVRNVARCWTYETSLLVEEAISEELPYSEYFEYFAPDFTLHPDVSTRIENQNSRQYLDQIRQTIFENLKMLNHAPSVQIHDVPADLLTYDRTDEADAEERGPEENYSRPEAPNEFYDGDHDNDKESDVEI
HDAC3, sequence (Q9Y618 395-489 partner limits assumed, species assumed): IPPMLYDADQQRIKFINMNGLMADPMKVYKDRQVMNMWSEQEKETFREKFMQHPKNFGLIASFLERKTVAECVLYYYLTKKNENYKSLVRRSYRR
CD73, sequence (P21589 27-549, species assumed): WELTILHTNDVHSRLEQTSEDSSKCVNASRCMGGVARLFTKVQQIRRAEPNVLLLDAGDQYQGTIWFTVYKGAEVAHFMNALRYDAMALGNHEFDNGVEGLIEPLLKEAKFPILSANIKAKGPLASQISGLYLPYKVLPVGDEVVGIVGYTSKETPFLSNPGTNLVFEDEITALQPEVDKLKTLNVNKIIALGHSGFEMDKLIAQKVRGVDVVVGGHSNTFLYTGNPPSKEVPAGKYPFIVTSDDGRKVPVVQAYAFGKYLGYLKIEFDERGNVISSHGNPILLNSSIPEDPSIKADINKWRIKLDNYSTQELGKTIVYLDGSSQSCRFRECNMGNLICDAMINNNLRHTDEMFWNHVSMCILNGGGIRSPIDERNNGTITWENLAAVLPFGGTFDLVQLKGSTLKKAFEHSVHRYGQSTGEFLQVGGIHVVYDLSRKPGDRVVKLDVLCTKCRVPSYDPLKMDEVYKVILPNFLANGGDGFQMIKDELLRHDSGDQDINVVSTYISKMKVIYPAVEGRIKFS
HDAC8, sequence (Q9BY41 whole entry, species assumed): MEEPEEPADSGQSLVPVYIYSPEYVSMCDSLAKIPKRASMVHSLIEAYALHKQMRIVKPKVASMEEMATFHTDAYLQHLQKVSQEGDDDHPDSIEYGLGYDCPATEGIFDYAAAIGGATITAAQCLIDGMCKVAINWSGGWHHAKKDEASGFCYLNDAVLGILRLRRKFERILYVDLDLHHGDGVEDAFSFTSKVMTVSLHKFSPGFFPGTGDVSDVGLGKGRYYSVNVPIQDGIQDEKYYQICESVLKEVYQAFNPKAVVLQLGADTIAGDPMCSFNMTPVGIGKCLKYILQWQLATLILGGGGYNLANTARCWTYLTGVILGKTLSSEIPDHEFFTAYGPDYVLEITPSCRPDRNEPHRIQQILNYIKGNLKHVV
KRAS G12C, sequence (P01116 1-188 isoform P01116-2 G12C): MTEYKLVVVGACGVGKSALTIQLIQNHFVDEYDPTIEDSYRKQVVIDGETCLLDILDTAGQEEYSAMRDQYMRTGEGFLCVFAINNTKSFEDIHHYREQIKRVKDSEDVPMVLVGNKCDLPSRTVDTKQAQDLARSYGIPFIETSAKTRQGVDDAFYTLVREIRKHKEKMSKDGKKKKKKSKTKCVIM
HDAC1, sequence (Q13547 whole entry, species assumed): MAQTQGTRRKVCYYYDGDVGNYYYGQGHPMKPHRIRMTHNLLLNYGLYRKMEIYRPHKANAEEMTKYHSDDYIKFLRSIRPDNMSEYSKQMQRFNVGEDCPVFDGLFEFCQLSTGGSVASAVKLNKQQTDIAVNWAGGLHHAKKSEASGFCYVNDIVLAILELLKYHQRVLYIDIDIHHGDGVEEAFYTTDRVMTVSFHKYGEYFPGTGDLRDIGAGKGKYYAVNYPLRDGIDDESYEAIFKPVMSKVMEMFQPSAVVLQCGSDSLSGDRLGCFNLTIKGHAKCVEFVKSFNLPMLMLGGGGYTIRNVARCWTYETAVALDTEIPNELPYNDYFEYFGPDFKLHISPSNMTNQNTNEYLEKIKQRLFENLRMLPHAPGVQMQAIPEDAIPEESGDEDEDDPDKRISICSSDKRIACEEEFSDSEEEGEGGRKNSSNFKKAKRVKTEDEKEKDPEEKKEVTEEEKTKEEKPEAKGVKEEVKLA
WIP 1, sequence (O15297 whole entry, species assumed): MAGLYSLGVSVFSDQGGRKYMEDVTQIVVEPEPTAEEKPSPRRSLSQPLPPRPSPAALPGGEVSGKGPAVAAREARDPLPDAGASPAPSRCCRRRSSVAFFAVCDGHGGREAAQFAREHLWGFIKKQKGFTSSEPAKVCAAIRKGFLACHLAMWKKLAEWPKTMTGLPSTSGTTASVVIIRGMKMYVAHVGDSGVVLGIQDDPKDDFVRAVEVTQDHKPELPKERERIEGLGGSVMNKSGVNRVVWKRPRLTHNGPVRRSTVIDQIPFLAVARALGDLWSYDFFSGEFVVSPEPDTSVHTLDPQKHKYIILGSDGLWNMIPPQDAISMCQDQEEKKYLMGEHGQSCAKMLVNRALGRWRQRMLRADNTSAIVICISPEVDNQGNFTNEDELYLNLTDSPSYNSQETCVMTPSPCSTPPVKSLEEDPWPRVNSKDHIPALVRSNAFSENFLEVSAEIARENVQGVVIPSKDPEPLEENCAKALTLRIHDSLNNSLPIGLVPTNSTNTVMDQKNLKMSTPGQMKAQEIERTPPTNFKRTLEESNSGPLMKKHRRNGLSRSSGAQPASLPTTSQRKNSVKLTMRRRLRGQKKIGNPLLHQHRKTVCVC
SHP2 D61G, sequence (Q06124 whole entry D61G): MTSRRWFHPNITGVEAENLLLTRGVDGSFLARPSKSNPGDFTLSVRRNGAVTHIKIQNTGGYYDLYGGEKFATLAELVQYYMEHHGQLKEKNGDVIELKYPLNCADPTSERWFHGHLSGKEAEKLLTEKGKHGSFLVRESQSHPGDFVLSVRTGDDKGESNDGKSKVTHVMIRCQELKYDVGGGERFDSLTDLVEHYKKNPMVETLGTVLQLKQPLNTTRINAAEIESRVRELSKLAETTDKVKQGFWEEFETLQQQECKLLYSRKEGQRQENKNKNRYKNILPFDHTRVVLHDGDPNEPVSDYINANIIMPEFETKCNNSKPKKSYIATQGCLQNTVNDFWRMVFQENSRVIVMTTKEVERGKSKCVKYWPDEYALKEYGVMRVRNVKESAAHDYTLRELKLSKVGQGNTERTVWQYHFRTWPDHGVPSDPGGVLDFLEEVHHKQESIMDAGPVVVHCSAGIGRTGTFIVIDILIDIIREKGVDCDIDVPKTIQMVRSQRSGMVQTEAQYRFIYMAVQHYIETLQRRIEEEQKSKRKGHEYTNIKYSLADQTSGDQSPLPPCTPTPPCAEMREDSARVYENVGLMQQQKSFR
KRAS G12D, sequence (P01116 1-188 isoform P01116-2 G12D): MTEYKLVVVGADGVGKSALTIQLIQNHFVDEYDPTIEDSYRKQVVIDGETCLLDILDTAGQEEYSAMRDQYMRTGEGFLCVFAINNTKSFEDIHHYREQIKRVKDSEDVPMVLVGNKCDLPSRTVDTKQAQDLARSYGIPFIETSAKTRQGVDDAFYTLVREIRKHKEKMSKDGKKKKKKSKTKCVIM
KRAS WT, sequence (P01116 1-188 isoform P01116-2): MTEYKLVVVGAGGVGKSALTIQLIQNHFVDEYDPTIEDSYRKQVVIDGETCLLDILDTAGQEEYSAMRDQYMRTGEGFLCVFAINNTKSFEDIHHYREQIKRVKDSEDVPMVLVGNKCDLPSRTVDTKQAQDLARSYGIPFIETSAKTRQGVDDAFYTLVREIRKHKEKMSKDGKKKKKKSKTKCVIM
hERG, sequence (Q12809 whole entry): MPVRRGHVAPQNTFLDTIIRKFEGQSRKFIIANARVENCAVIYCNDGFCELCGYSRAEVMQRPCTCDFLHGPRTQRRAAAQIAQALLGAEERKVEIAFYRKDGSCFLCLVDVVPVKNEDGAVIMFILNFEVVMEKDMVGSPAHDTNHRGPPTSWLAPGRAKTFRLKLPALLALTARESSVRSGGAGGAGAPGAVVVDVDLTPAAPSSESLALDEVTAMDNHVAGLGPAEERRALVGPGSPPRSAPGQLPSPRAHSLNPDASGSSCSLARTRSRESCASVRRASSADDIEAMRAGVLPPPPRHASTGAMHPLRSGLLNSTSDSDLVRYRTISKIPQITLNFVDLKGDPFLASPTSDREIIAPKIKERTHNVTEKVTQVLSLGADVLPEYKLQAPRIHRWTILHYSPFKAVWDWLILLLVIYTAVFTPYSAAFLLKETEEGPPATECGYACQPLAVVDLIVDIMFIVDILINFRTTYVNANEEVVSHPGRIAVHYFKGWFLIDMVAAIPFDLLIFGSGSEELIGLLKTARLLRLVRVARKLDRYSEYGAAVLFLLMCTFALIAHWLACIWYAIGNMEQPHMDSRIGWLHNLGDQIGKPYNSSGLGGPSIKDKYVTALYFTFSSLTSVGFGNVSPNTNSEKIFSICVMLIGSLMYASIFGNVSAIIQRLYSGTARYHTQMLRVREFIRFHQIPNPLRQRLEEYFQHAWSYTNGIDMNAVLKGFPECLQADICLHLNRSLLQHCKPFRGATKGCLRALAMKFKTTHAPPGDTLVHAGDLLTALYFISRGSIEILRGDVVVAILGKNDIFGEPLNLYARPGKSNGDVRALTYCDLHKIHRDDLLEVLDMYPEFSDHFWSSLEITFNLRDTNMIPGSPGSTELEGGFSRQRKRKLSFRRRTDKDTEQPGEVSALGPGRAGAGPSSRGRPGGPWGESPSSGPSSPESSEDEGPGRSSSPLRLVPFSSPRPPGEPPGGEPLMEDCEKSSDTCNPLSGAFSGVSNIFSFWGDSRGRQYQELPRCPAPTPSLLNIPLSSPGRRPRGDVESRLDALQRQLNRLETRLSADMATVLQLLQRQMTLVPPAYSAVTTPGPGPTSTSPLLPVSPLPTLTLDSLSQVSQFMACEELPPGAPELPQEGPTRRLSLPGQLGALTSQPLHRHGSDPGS

With `Cc1c(F)c(N)cc(C(=O)Nc2cc(-n3cc(C(=O)N4CCN(C)CC4)nn3)c(F)cc2N2C[C@@H](C)N(C)[C@@H](C)C2)c1Cl` [HYBI-084, 5-amino-2-chloro-4-fluoro-N-(4-fluoro-5-(4-(4-methylpiperazine-1-carbonyl)-1H-1,2,3-triazol-1-yl)-2-((3S,5R)-3,4,5-trimethylpiperazin-1-yl)phenyl)-3-methylbenzamide] the IC50 (CD73) was over 1000 nM, the IC50 (SHP2 D61G) was over 1000 nM and the “Relative Abundance (UV Peak Area % Total)” value (Metabolite ID in plasma [1]) was 93.47%. For the same compound, the IC50 (LSD1) was over 1000 nM, the IC50 (MV 411 cells) was 3170 nM and the IC50 (KRAS WT) was over 1000 nM. For the same compound, the IC50 (KRAS G12C) was over 1000 nM, the IC50 (WIP 1) was over 1000 nM and the IC50 (HDAC2) was over 1000 nM. It also gave a fraction unbound (in vitro [2]) of under 0.24, an IC50 (HDAC3) of over 1000 nM and an IC50 (TEAD4) of over 1000 nM. For the same compound, the IC50 (hERG) was 22200 nM, the IC50 (KRAS G12V) was over 1000 nM and the half-life at 2 μM ([3]; Dog whole blood) was over 2.41 h. The “% Remaining after 60 min incubation” value ([3]; Dog whole blood) was 94.6%, the half-life at 2 μM ([3]; Human whole blood) was 10.3 h and the “% Remaining after 60 min incubation” value ([3]; Human whole blood) was 110%. The half-life at 2 μM ([3]; Mouse whole blood) was over 2.41 h, the “% Remaining after 60 min incubation” value ([3]; Mouse whole blood) was 108% and the half-life at 2 μM ([3]; Rat whole blood) was over 2.41 h. For the same compound, the “% Remaining after 60 min incubation” value ([3]; Rat whole blood) was 109%, the half-life at 1 μM (Liver S9 stability assay; Dog liver S9) was over 2.42 h and the microsomal CLint at 1 μM (Liver S9 stability assay; Dog liver S9) was under 4.8 µL/min/mg. For the same compound, the “% Remaining after 60 min incubation” value (Liver S9 stability assay; Dog liver S9, 1 μM, 5 mM GSH, 37° C.) was 92.5%, the “Relative Abundance (UV Peak Area % Total)” value (Metabolite ID in plasma [4]) was 97.58% and the “Predicted Mean Brain Concentration, Cmin = 24 h” value ([5]; estimated from repeated PO mouse) was 11.1 ng/g. For the same compound, the “Predicted Mean Brain Concentration, Cmin = 24 h” value ([5]; estimated from single PO mouse) was 4.5 ng/g, the “Predicted Mean Brain Concentration, Cmin = 24 h” value ([5]; estimated from single PO rat) was 3.6 ng/g and the IC50 (HDAC1) was over 1000 nM. For the same compound, the IC50 (HDAC8) was over 1000 nM, the fraction unbound (in vitro [6]) was under 0.07 and the IC50 (ATX) was over 1000 nM. For the same compound, the IC50 (KRAS G12D) was over 1000 nM and the IC50 (TCPTP) was over 1000 nM.
